Data: ChEMBL document CHEMBL1201862, “PubChem BioAssay data set” (2004)
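Method: 48-hour compound exposure of cells in 96-well plates, five concentrations, linear interpolation of endpoints. GI50 is the concentration that inhibits growth by half.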 Calls of active or inactive are those of the source. Cut-off read from the data, not from the text of the source: active = GI50 up to about 1.1 µM and inactive = higher.

Key:
Assay in all cases: growth of human tumour cells (NCI), 48 h
[1] = system: HCC 2998
[2] = system: DMS-273
[3] = system: CCRF-CEM
[4] = system: HCT-116
[5] = system: SNB-19
[6] = system: SN12C
[7] = system: SK-MEL-28
[8] = system: K562
[9] = system: SF-539
[10] = system: SNB-75
[11] = system: SK-MEL-5
[12] = system: SR
[13] = system: LOX IMVI
[14] = system: DMS-114
[15] = system: HCT-15
[16] = system: SW-620
[17] = system: SF-268
[18] = system: HL-60
[19] = system: OVCAR-5
[20] = system: UO-31
[21] = system: HOP-62
[22] = system: NCI-H522
[23] = system: NCI-H23
[24] = system: RPMI-8226
[25] = system: U-251
[26] = system: HOP-18
[27] = system: OVCAR-3
[28] = system: RXF 631
[29] = system: UACC-62
[30] = system: A498
[31] = system: DLD-1
[32] = system: RXF 393
[33] = system: NCI-H226
[34] = system: ACHN
[35] = system: NCI-H460
[36] = system: TK-10
[37] = system: EKVX
[38] = system: MOLT-4
[39] = system: IGROV-1
[40] = system: M14
[41] = system: OVCAR-4
[42] = system: KM-20L2
[43] = system: HT-29
[44] = system: Malme-3M
[45] = system: SF-295
[46] = system: OVCAR-8
[47] = system: UACC-257
[48] = system: COLO 205
[49] = system: M19-MEL
[50] = system: A549
[51] = system: KM12
[52] = system: HOP-92
[53] = system: 786-0
[54] = system: LXFL 529
[55] = system: SK-OV-3
[56] = system: SNB-78

Which GI50 [1] does the source give for `Cc1ccc(-c2cc(-c3ccccc3)c(C#N)c(=O)[nH]2)cc1` here?
Its GI50 is > 100 µM (inactive).

What about the GI50 [2] of the same compound?
Its GI50 is > 100 µM (inactive).

And the GI50 [3]?
Its GI50 is > 100 µM (inactive).

And the GI50 [4]?
Its GI50 is > 100 µM (inactive).

What about the GI50 [5] of the same compound?
Its GI50 is > 100 µM (inactive).

What about the GI50 [6] of the same compound?
Its GI50 is > 100 µM (inactive).

And the GI50 [7]?
The GI50 was > 100 µM (inactive).

And the GI50 [8]?
The GI50 was > 100 µM (inactive).

What about the GI50 [9] of the same compound?
The GI50 was > 100 µM (inactive).

And the GI50 [10]?
Its GI50 is 53.2 µM (inactive).

What about the GI50 [11] of the same compound?
The GI50 was > 100 µM (inactive).

And the GI50 [12]?
Its GI50 is > 100 µM (inactive).

What about the GI50 [13] of the same compound?
The GI50 was > 100 µM (inactive).

What about the GI50 [14] of the same compound?
Its GI50 is > 100 µM (inactive).

And the GI50 [15]?
Its GI50 is > 100 µM.

And the GI50 [16]?
Its GI50 is > 100 µM (inactive).

What about the GI50 [17] of the same compound?
The GI50 was > 100 µM (inactive).

And the GI50 [18]?
The GI50 was > 100 µM (inactive).

What about the GI50 [19] of the same compound?
The GI50 was > 100 µM (inactive).

And the GI50 [20]?
The GI50 was > 100 µM (inactive).

And the GI50 [21]?
The GI50 was > 100 µM (inactive).

What about the GI50 [22] of the same compound?
Its GI50 is > 100 µM (inactive).

And the GI50 [23]?
The GI50 was > 100 µM (inactive).

What about the GI50 [24] of the same compound?
The GI50 was > 100 µM (inactive).

What about the GI50 [25] of the same compound?
Its GI50 is > 100 µM (inactive).

And the GI50 [26]?
The GI50 was > 100 µM (inactive).

And the GI50 [27]?
The GI50 was > 100 µM (inactive).

What about the GI50 [28] of the same compound?
The GI50 was > 100 µM (inactive).

What about the GI50 [29] of the same compound?
Its GI50 is > 100 µM (inactive).

And the GI50 [30]?
The GI50 was > 100 µM (inactive).

And the GI50 [31]?
The GI50 was > 100 µM (inactive).

What about the GI50 [32] of the same compound?
The GI50 was > 100 µM (inactive).

And the GI50 [33]?
The GI50 was > 100 µM (inactive).

And the GI50 [34]?
The GI50 was > 100 µM (inactive).

And the GI50 [35]?
The GI50 was > 100 µM (inactive).

And the GI50 [36]?
Its GI50 is > 100 µM (inactive).

And the GI50 [37]?
Its GI50 is > 100 µM (inactive).

And the GI50 [38]?
Its GI50 is > 100 µM (inactive).

And the GI50 [39]?
Its GI50 is > 100 µM (inactive).

What about the GI50 [40] of the same compound?
Its GI50 is > 100 µM (inactive).

What about the GI50 [41] of the same compound?
The GI50 was 79.1 µM (inactive).

And the GI50 [42]?
The GI50 was > 100 µM (inactive).

What about the GI50 [43] of the same compound?
The GI50 was > 100 µM (inactive).

What about the GI50 [44] of the same compound?
The GI50 was > 100 µM (inactive).

And the GI50 [45]?
Its GI50 is > 100 µM (inactive).

What about the GI50 [46] of the same compound?
The GI50 was > 100 µM (inactive).

What about the GI50 [47] of the same compound?
Its GI50 is > 100 µM (inactive).

And the GI50 [48]?
Its GI50 is > 100 µM (inactive).

And the GI50 [49]?
Its GI50 is > 100 µM (inactive).

What about the GI50 [50] of the same compound?
Its GI50 is > 100 µM (inactive).

What about the GI50 [51] of the same compound?
The GI50 was > 100 µM (inactive).

And the GI50 [52]?
The GI50 was 56.9 µM (inactive).

What about the GI50 [53] of the same compound?
Its GI50 is > 100 µM (inactive).

What about the GI50 [54] of the same compound?
Its GI50 is > 100 µM (inactive).

What about the GI50 [55] of the same compound?
Its GI50 is > 100 µM (inactive).

What about the GI50 [56] of the same compound?
Its GI50 is > 100 µM (inactive).
